According to patent US11147272B2, “Pyridone compounds and agricultural and horticultural fungicides comprising the same as active ingredients” (MITSUI CHEMICALS AGRO, INC., priority 2017, dated 2021):

Assays:
[1] = system: Puccinia recondita; assay: Test Example E: Brown rust on wheat; assay type: in vivo; settings: Brown rust on wheat; control value class
[2] = system: Phytophthora infestans; assay: whole plant or invertebrate; assay type: in vivo; settings: Late blight on tomato; control value class
[3] = system: Botrytis cinerea; assay: Test Example B: Gray mold on tomato; settings: Gray mold on tomato; control value class
[4] = system: Plasmopara viticola; assay: Test Example G: Downy mildew on vine; settings: Downy mildew on vine; 250 ppm spray, 7 to 10 days after inoculation
[5] = system: Alternaia brassicicola; assay: Test Example C: Alternaria sooty spot on cabbage; assay type: in vivo; settings: Alternaria sooty spot on cabbage; control value class
Source text: Seeds of a test plant (cabbage variety: Shikidori) were planted and cultivated until the cotyledons extended.
<Control Value> Control value=100{1−(n/3)}

[6] = system: Magnaporthe grisea; assay: whole plant or invertebrate; assay type: in vivo; settings: Blast on rice; control value class
[7] = system: Colletotrichum orbiculare; assay: Test Example H: Anthracnose on cucumber; settings: Anthracnose on cucumber; 250 ppm spray, 6 to 10 days after inoculation
[8] = system: Blumeria graminis f. sp. hordei; assay: Test Example D: Powdery mildew on barley; settings: Powdery mildew on barley; control value class

SMILES	Test E control value [1]	Test F control value [2]	Test B control value [3]	Test G control value [4]	Test C control value [5]	Test A control value [6]	Test H control value [7]	Test D control value [8]
CCOC(C)(c1cc(Cl)c(=O)n(CC)c1-c1ccc(F)cc1)C(C)C (stereo not shown) [compound 215]	L (50% or less control value)	L (50% or less control value)	L (50% or less control value)	L (50% or less control value)	L (50% or less control value)	L (50% or less control value)	L (50% or less control value)	H (more than 50% control value)
CCCOC(C)(c1cc(Cl)c(=O)n(CC)c1-c1ccc(F)cc1)C(C)C (stereo not shown) [compound 216]	L (50% or less control value)	L (50% or less control value)	L (50% or less control value)	L (50% or less control value)	L (50% or less control value)	L (50% or less control value)	L (50% or less control value)	H (more than 50% control value)
CCn1c(-c2ccc(F)cc2)c(C(C)(F)C(C)C)cc(Cl)c1=O (stereo not shown) [compound 217]	H (more than 50% control value)	L (50% or less control value)	H (more than 50% control value)	L (50% or less control value)	H (more than 50% control value)	H (more than 50% control value)	H (more than 50% control value)	H (more than 50% control value)
CCOc1cc(F)c(-c2c(C(=O)C(C)C)cc(Cl)c(=O)n2CC)c(F)c1 [compound 218]	H (more than 50% control value)	L (50% or less control value)	H (more than 50% control value)	H (more than 50% control value)	H (more than 50% control value)	H (more than 50% control value)	H (more than 50% control value)	H (more than 50% control value)
CCn1c(-c2ccc(F)cc2Cl)c(C2CCCC2)ccc1=O [compound 219]	H (more than 50% control value)	L (50% or less control value)	H (more than 50% control value)	L (50% or less control value)	H (more than 50% control value)	H (more than 50% control value)	L (50% or less control value)	H (more than 50% control value)
CCn1c(-c2ccc(F)cc2Cl)c(C2CCCC2)cc(Cl)c1=O [compound 220]	H (more than 50% control value)	L (50% or less control value)	H (more than 50% control value)	H (more than 50% control value)	H (more than 50% control value)	H (more than 50% control value)	H (more than 50% control value)	H (more than 50% control value)
CCn1c(-c2ccc(F)cc2Cl)c(C2CCCC2)cc(Br)c1=O [compound 221]	H (more than 50% control value)	L (50% or less control value)	H (more than 50% control value)	L (50% or less control value)	H (more than 50% control value)	H (more than 50% control value)	L (50% or less control value)	H (more than 50% control value)
CCn1c(-c2ccc(OC)cc2)c(C(=O)C(C)C)cc(Cl)c1=O [compound 222]	H (more than 50% control value)	L (50% or less control value)	H (more than 50% control value)	L (50% or less control value)	H (more than 50% control value)	L (50% or less control value)	L (50% or less control value)	H (more than 50% control value)
CCn1c(-c2ccc(OC)cc2)c(C(C)(O)C(C)C)cc(Cl)c1=O (stereo not shown) [compound 223]	H (more than 50% control value)	L (50% or less control value)	H (more than 50% control value)	L (50% or less control value)	H (more than 50% control value)	L (50% or less control value)	L (50% or less control value)	L (50% or less control value)
CCn1c(-c2ccc(OC)cc2)c(C(C)(OC)C(C)C)cc(Cl)c1=O (stereo not shown) [compound 224]	H (more than 50% control value)	L (50% or less control value)	H (more than 50% control value)	L (50% or less control value)	L (50% or less control value)	L (50% or less control value)	L (50% or less control value)	L (50% or less control value)
CCn1c(-c2ccc(Br)cc2Cl)c(CC(C)C)ccc1=O [compound 225]	H (more than 50% control value)	L (50% or less control value)	H (more than 50% control value)	L (50% or less control value)	H (more than 50% control value)	L (50% or less control value)	L (50% or less control value)	H (more than 50% control value)
CCOc1cc(F)c(-c2c(C(C)(O)C(C)C)cc(Cl)c(=O)n2CC)c(F)c1 (stereo not shown) [compound 226]	H (more than 50% control value)	L (50% or less control value)	H (more than 50% control value)	L (50% or less control value)	H (more than 50% control value)	H (more than 50% control value)	H (more than 50% control value)	L (50% or less control value)
CCOc1cc(F)c(-c2c(C(C)(OC)C(C)C)cc(Cl)c(=O)n2CC)c(F)c1 (stereo not shown) [compound 227]	H (more than 50% control value)	L (50% or less control value)	H (more than 50% control value)	H (more than 50% control value)	H (more than 50% control value)	H (more than 50% control value)	H (more than 50% control value)	H (more than 50% control value)
CCOC(C)(c1cc(Cl)c(=O)n(CC)c1-c1c(F)cc(F)cc1F)C(C)C (stereo not shown) [compound 228]	H (more than 50% control value)	L (50% or less control value)	H (more than 50% control value)	H (more than 50% control value)	H (more than 50% control value)	H (more than 50% control value)	H (more than 50% control value)	H (more than 50% control value)
